Experimental data: PubChem BioAssay (NCI)
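Grown in 96-well plates, cells were treated for 48 hours with each compound at five concentrations. Insufficient inhibition: endpoint recorded as highest concentration tested. Here, GI50 denotes the concentration required for 50% inhibition of growth. At the TGI there is no net growth.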

How the values were obtained:
Experiment in all cases: NCI-60 cell line screen, 48 h
SR leukemia = system: SR leukemia
COLO 205 colon = system: COLO 205 colon
UO-31 renal = system: UO-31 renal
PC-3 prostate = system: PC-3 prostate
HT29 colon = system: HT29 colon
OVCAR-5 ovarian = system: OVCAR-5 ovarian
SN12C renal = system: SN12C renal
SF-268 CNS = system: SF-268 CNS
NCI-H226 lung = system: NCI-H226 lung
ACHN renal = system: ACHN renal

SMILES | TGI (SR leukemia) | TGI (COLO 205 colon) | TGI (UO-31 renal) | TGI (PC-3 prostate) | TGI (HT29 colon) | TGI (OVCAR-5 ovarian) | TGI (SN12C renal) | TGI (SF-268 CNS) | TGI (NCI-H226 lung) | TGI (ACHN renal) | GI50 (SR leukemia) | GI50 (PC-3 prostate) | GI50 (ACHN renal) | GI50 (COLO 205 colon) | GI50 (UO-31 renal) | GI50 (HT29 colon) | GI50 (OVCAR-5 ovarian) | GI50 (SN12C renal) | GI50 (SF-268 CNS) | GI50 (NCI-H226 lung)
Cc1cc(/N=C/c2ccc(C#N)cc2)n(-c2ccccc2)n1 | > 100 µM | > 100 µM | > 100 µM | > 100 µM | > 100 µM | > 100 µM | > 100 µM | > 100 µM | > 100 µM | > 100 µM | – | – | – | – | – | – | – | – | – | –
S=C1CC(c2ccccc2)Sc2ccc(Cl)cc2N1 (stereo not drawn) | > 100 µM | > 100 µM | > 100 µM | > 100 µM | > 100 µM | > 100 µM | > 100 µM | > 100 µM | > 100 µM | > 100 µM | – | – | – | – | – | – | – | – | – | –
O=C1CCCc2cc3c(cc21)CC1(C3)Cc2ccc3c(c2C1)C(=O)CCC3 (stereo not drawn) | 40.3 µM | 34.9 µM | > 100 µM | > 100 µM | > 100 µM | > 100 µM | > 100 µM | > 100 µM | 90.1 µM | 55.4 µM | – | – | – | – | – | – | – | – | – | –
Nc1nc(Nc2ccccc2)sc1C(=O)c1c[nH]c2ccccc12 | 5.12 µM | 17.1 µM | 13.1 µM | 25.3 µM | 14.6 µM | 24.9 µM | 34.4 µM | 33.8 µM | 29.7 µM | 62.2 µM | – | – | – | – | – | – | – | – | – | –
COC(=O)C1(Cc2ccc3c(c2)CCC3)Cc2cc3c(cc2C1)CCC3 | > 100 µM | > 100 µM | > 100 µM | > 100 µM | 89.3 µM | > 100 µM | > 100 µM | > 100 µM | > 100 µM | > 100 µM | – | – | – | – | – | – | – | – | – | –
Cc1c2ccncc2c(C)c2c1[nH]c1ccccc12 | > 100 µM | 1.83 µM | 4.62 µM | 8.55 µM | 3.88 µM | 4.23 µM | 4.63 µM | 3.38 µM | 5.46 µM | 4.32 µM | 0.819 µM | 1.2 µM | 0.473 µM | – | – | – | – | – | – | –
COc1ccc(N=Nc2c3c(c(O)c4ccccc24)CCC(C)(C)O3)cc1 | 39.1 µM | 72.8 µM | 35.2 µM | 87 µM | 27.6 µM | 43.3 µM | 38.7 µM | 31.5 µM | > 100 µM | 32.4 µM | – | – | – | – | – | – | – | – | – | –
O=C(c1ccccc1)N1C(=S)N=C(Nc2ccccc2)C1=Nc1ccccc1 | > 100 µM | > 100 µM | > 100 µM | > 100 µM | > 100 µM | > 100 µM | > 100 µM | > 100 µM | > 100 µM | > 100 µM | – | – | – | – | – | – | – | – | – | –
Nc1nc(Nc2ccc(Cl)cc2)sc1C(=O)c1cccs1 | 14.9 µM | > 100 µM | 95.9 µM | > 100 µM | > 100 µM | > 100 µM | 50.6 µM | 83.4 µM | 75.3 µM | > 100 µM | – | – | – | – | – | – | – | – | – | –
CCOC(=O)C1CN(C2CC2)CCC1=O (stereo not drawn) | > 100 µM | > 100 µM | > 100 µM | > 100 µM | > 100 µM | > 100 µM | > 100 µM | > 100 µM | > 100 µM | > 100 µM | – | – | – | – | – | – | – | – | – | –
CC/C(Cl)=N\OC(=O)Nc1ccc(F)c([N+](=O)[O-])c1 | > 68.6 µM | 6.58 µM | 14.2 µM | 32.4 µM | > 57.8 µM | 44.9 µM | 47.1 µM | 36.4 µM | > 100 µM | 4.78 µM | – | – | – | – | – | – | – | – | – | –
Nc1ccc2nc3n(c2c1)C(=O)c1ccccc1-3 | > 100 µM | > 100 µM | > 100 µM | > 100 µM | > 100 µM | > 100 µM | > 100 µM | > 100 µM | > 100 µM | > 100 µM | – | – | – | – | – | – | – | – | – | –
O=C(CNCc1ccccc1)Oc1c(Cl)c(Cl)c(Cl)c(Cl)c1Cl | 47.9 µM | 85.9 µM | 52.1 µM | 48.1 µM | > 100 µM | > 100 µM | > 100 µM | > 100 µM | 83.1 µM | 51.1 µM | – | – | – | – | – | – | – | – | – | –
Cc1cc2c(nn1)-c1ccccc1C2=O | > 10 µM | > 10 µM | > 10 µM | > 10 µM | > 10 µM | > 10 µM | > 10 µM | > 10 µM | > 10 µM | > 10 µM | – | – | – | – | – | – | – | – | – | –
O=C(Nc1ccc(-n2cc(-c3ccncc3)c(-c3ccc(O)c(Cl)c3)n2)cc1)Nc1cccc(Cl)c1Cl | > 32.5 µM | 13 µM | > 32.5 µM | 14.3 µM | 10.4 µM | > 32.5 µM | > 32.5 µM | > 32.5 µM | > 32.5 µM | > 32.5 µM | 30.6 µM | 1.73 µM | 7.82 µM | 4.54 µM | 6.67 µM | 3.87 µM | > 32.5 µM | 19.9 µM | 18.6 µM | > 32.5 µM
